{"source": "paper PMC4236121", "about": "(PLoS ONE, 2014)", "note": "Where no end group is shown, it is not given here.", "data": [{"biological_target": "T1, DQ8 protein (HLA-DQ8: DQA1*03:01/DQB1*03:02) (Homo sapiens, UniProt P01909+P01920, A209T/A45G/C70Q/D89A/DUP78-78/E183D/E77G/F237L/G63E/H199R/I129T/K197E/L178F/L74F/L98V/Q57E/Q76R/S185I/S97I/T217I/T49S/V73L/Y58L)", "T1 construct": "made in house; host or cells: insect cells (Drosophila S2 is named only for the biotinylated tetramer preparation)", "experiment": "Peptide binding competition", "conditions": "not given", "procedure": "(§1) Recombinant DQ8 protein was produced as previously described. Briefly, soluble DQ8 was purified from insect cell culture supernatants by affinity chromatography and dialyzed against citric/phosphate storage buffer, pH 5.4. For the preparation of HLA class II tetramers, DQ8 protein was in vivo biotinylated in Drosophila S2 cells prior to harvest and dialyzed into citric/phosphate buffer. The biotinylated monomer was loaded with 0.2 mg/ml of peptide by incubating at 37°C for 72 h in the presence of 0.2 mg/ml n-Dodecyl-β-maltoside and 1 mM Pefabloc SC (Sigma–Aldrich, St. Louis, MO). Peptide loaded monomers were subsequently conjugated into tetramers using R-PE streptavidin (Biosource International, Camarillo, CA) at a molar ratio of 8∶1.\n(§2) Peptide binding curves were simulated by non-linear regression with Prism software (Version 5, GraphPad Software Inc.) using a sigmoidal dose–response curve.", "units": {"IC50": "µM"}, "values": [{"compound": "CSCC[C@H](NC(=O)[C@H](CC(=O)O)NC(=O)[C@H](CC(C)C)NC(=O)CNC(=O)[C@@H](NC(=O)[C@H](CO)NC(=O)[C@H](CC(C)C)NC(=O)[C@H](CCC(N)=O)NC(=O)[C@H](CC(N)=O)NC(=O)[C@H](Cc1ccccc1)NC(=O)[C@H](Cc1ccc(O)cc1)NC(=O)[C@H](CCCNC(=N)N)NC(=O)[C@@H]1CCCN1)[C@@H](C)O)C(=O)N[C@H](C(=O)NCC(=O)O)C(C)C", "note": "[GAD65 176–190]", "IC50": "> 50"}, {"compound": "TYEIAPVFVLLEYVT [GAD65 206–220]", "IC50": 1.5}, {"compound": "TAKAMEQMAGSSEQAAEAME [H1MP185–204, reference compound]", "IC50": 1.4}]}, {"biological_target": "T1, DQ8 protein (HLA-DQ8: DQA1*03:01/DQB1*03:02)", "experiment": "Peptide binding competition", "conditions": "competition with 0.04 µM biotinylated GAD65_250–266 index peptide in wells coated with recombinant DQ8 protein; europium-streptavidin, time resolved fluorometer; sigmoidal dose-response fit; read-out: IC50 (binding to DQ8)", "procedure": "as §1, §2", "units": {"IC50": "µM"}, "values": [{"compound": "AKGTTGFEAHVDKCL [GAD65 461–475]", "IC50": "> 50"}, {"compound": "YIPPSLRTLEDNEE [GAD65 508–521]", "IC50": "> 50"}, {"compound": "FQQDKHYDLSYDTGD [GAD65 427–441]", "IC50": "> 50"}, {"compound": "YVVKSFDRSTKVIDFHYPNE [GAD65 121–140]", "IC50": 1.6}]}]}
